Data on four molecules can be found in ChEMBL document CHEMBL1201862, “PubChem BioAssay data set” (2004).

SMILES strings stand for the structures.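 Test compounds were applied to cells in 96-well plates for 48 hours at 5 doses. Abbreviation: GI50, concentration required for 50% inhibition of growth.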 The source made the active and inactive calls. Rule as the data show it: active = GI50 up to about 1.1 µM and inactive = higher.

Test systems include K562; CCRF-CEM; OVCAR-5; SW-620; NCI-H226; MDA-MB-231; DU-145; MCF7; SK-MEL-2; EKVX; SR; SF-539; RXF 393; TK-10; SK-OV-3; M14; HOP-62; UACC-62; RPMI-8226; HL-60.
Assay in all cases: growth of human tumour cells (NCI), 48 h

For the molecule `COc1ccc2c(-c3ccc(O)cc3)c(Oc3ccc(Cl)cc3)c(=O)oc2c1`, the GI50 in the experiment with K562 was 7.21 µM (inactive); with CCRF-CEM it was 6.28 µM (inactive); in the experiment on OVCAR-5, 4.89 µM (inactive); in the experiment with SW-620, 5.35 µM (inactive); in the experiment on NCI-H226, > 20.6 µM (inactive); with MDA-MB-231, 5.13 µM (inactive). The GI50 was 4.2 µM (inactive) in the experiment with DU-145; 3.63 µM (inactive) in the experiment on MCF7; 4.69 µM (inactive) in the experiment on SK-MEL-2; 3.14 µM (inactive) with EKVX; 2.94 µM (inactive) in the experiment on SR; 8.26 µM (inactive) in the experiment on SF-539. Besides, the GI50 is 8.34 µM (inactive) with RXF 393; 5.48 µM (inactive) in the experiment with TK-10; 12 µM (inactive) in the experiment with SK-OV-3; 6.07 µM (inactive) in the experiment on M14; 12.9 µM (inactive) in the experiment on HOP-62; 4.98 µM (inactive) with UACC-62. Further, in the experiment on RPMI-8226, the GI50 was 3.99 µM (inactive).

For `C=CC(C)(C)c1cc([C@@H]2COc3cc(O)ccc3C2=O)c(O)c(O)c1OC`, the GI50 is 34.8 µM (inactive) in the experiment on K562; 41.7 µM (inactive) in the experiment on CCRF-CEM; 31.4 µM (inactive) in the experiment with OVCAR-5; 26.7 µM (inactive) in the experiment on SW-620; 39.3 µM (inactive) with NCI-H226; 25.2 µM (inactive) with MDA-MB-231. For the same molecule, the GI50 with DU-145 was 20.7 µM (inactive); in the experiment on HL-60 it was 22.7 µM (inactive); with MCF7, 17.4 µM (inactive); in the experiment on SK-MEL-2, 22.5 µM (inactive); with EKVX, 28.6 µM (inactive); with SR, 22.3 µM (inactive). Also, the GI50 is 24.9 µM (inactive) in the experiment with SF-539; 4.85 µM (inactive) in the experiment with RXF 393; > 100 µM (inactive) with TK-10; 29.1 µM (inactive) with SK-OV-3; 22.3 µM (inactive) in the experiment with M14; 18.1 µM (inactive) in the experiment with UACC-62.

Regarding `COC(=O)C1=C(C(=O)OC)SC2(S1)C(C(=O)OC)=C(C(=O)OC)Sc1c2ss/c1=N/C(C)(C)C`, the GI50 in the experiment on K562 is 2.21 µM (inactive); in the experiment with CCRF-CEM, 0.345 µM (active); in the experiment with OVCAR-5, 1.87 µM (inactive); in the experiment with SW-620, 0.622 µM (active); in the experiment on NCI-H226 it was 3.18 µM (inactive); with MDA-MB-231 it was 1.64 µM (inactive). For the same molecule, the GI50 with DU-145 is 0.877 µM (active); in the experiment on HL-60 it was 0.753 µM (active); in the experiment on MCF7, 1.26 µM (inactive); with SK-MEL-2, 1.34 µM (inactive); in the experiment on EKVX, 1.49 µM (inactive); in the experiment with SR, 0.366 µM (active). The GI50 in the experiment on SF-539 was 1.27 µM (inactive); in the experiment on RXF 393, 0.541 µM (active); in the experiment on TK-10, 1.64 µM (inactive); in the experiment with SK-OV-3, 5.18 µM (inactive); in the experiment with M14 it was 1.66 µM (inactive); in the experiment with HOP-62 it was 3.72 µM (inactive). Further, the GI50 in the experiment with UACC-62 was 1.56 µM (inactive).

For `CSCC[C@H]1C(=O)N=C(N)N1C(=O)OCc1ccccc1`, the GI50 in the experiment on K562 was 21.8 µM (inactive); in the experiment on OVCAR-5, > 100 µM (inactive); with SW-620, 17.1 µM (inactive); with NCI-H226, 30 µM (inactive); in the experiment with MDA-MB-231 it was 66.5 µM (inactive); with DU-145, > 100 µM (inactive). The GI50 is 14.5 µM (inactive) in the experiment on HL-60; 28.8 µM (inactive) in the experiment on MCF7; > 100 µM (inactive) with SK-MEL-2; 53.6 µM (inactive) with EKVX; 17.8 µM (inactive) in the experiment with SR; 17.3 µM (inactive) with RXF 393. In addition, the GI50 with TK-10 was 37.9 µM (inactive); in the experiment with HOP-62 it was > 100 µM (inactive); in the experiment on UACC-62 it was 19.1 µM (inactive); in the experiment on RPMI-8226, 60 µM (inactive).
